US20030215817A1, “Modulation of gene expression in formation of fatty atherosclerotic lesions” (priority 2003, published 2003)

How the values were obtained:
Format in all cases: in vivo, rabbit
[1] = system: REC1_34 (digital address CGGT 209) mRNA; test: TOGA analysis, REC1_34; details: aorta at day 14 of cholesterol, 3 mg/kg/week for 4 weeks
Description: (§1) To perform the studies, New Zealand male rabbits weighing 2.0-2.5 kg (Charles River, Calco, Italy) were used. The rabbits were divided into three groups and maintained in identical experimental conditions: (1) control group (n=15); rabbits fed a cholesterol-rich diet; (2) lercanidipine-treated group (n=15); rabbits fed a cholesterol-rich diet and also treated with lercanidipine (3 mg/kg/week); and (3) (R)-lercanidipine-treated group (n=5); rabbits fed a cholesterol-rich diet and also treated with the (R)-enantiomer of lercanidipine (3 mg/kg/week). After a 2 week period of subcutaneous, once a week, pretreatment with 3 mg/kg/week of lercanidipine or (R)-lercanidipine, the rabbits received a daily cholesterol supplement for up to 8 weeks or 2 weeks, respectively. In the following examples, use of the term “lercanidipine” refers to the racemic mixture of lercanidipine hydrochloride, whereas “(R)-lercanidipine” refers to the (R)-enantiomer of lercanidipine hydrochloride.
(§2) The mRNA from the above-described groups was isolated from aorta at different time points, resulting in the following mRNA samples: (1) Day 0 Control=no administered cholesterol, no lercanidipine; (2) Day 0+lercanidipine=no administered cholesterol, treatment with lercanipidine (2 weeks; 3 mg/kg/week); (3) Day 14 Control=cholesterol diet for two weeks, no lercanidipine; (4) Day 14+lercanidipine=cholesterol diet for two weeks, treatment with lercanidipine (four weeks; 3 mg/kg/week); (5) Week 8 Control=cholesterol diet for 8 weeks, no lercanidipine; and (6) Week 8+lercanidipine=cholesterol diet for 8 weeks, treatment with lercanidipine (10 weeks; 3 mg/kg/week). In addition, Day 14+(R)-lercanidipine mRNA samples were prepared from rabbits given a cholesterol diet for two weeks and treated with 3 mg/kg/week (R)-lercanidipine for four weeks.
(§3) Aorta mRNAs were prepared in the following manner. First, the aortas from each experimental group were retrieved and shredded using a polytron homogenizer. The samples were further homogenized using a teflon pestle, after which the cellular debris, nuclei, and blood cells were pelleted by centrifugation. The supernatants were extracted twice with phenol-chloroform-isoamyl alcohol and once with chloroform-isoamyl alcohol. RNA was then precipitated from the aqueous phase with ethanol. The poly A+ mRNA was prepared using standard methods of polyA selection known in the art (Schriber et al., J. Mol. Biol., 142:93-116 (1980)).
(§4) The isolated mRNA was analyzed using a method of simultaneous sequence-specific identification of mRNAs known as TOGA, described in U.S. Pat. No. 5,459,037 and U.S. Pat. No. 5,807,680, hereby incorporated herein by reference. In a preferred embodiment, the TOGA method further comprised an additional PCR step performed using a mixture of four 5′ PCR primers and cDNA templates prepared from a population of antisense cRNAs. A final PCR step that used a mixture of 256 5′ PCR primers produced PCR products that were cDNA fragments that corresponded to the 3′-region of the starting mRNA population. The produced PCR products were then identified by: (a) the initial 5′ sequence comprising the sequence remainder of the recognition site of the restriction endonuclease used to cut and isolate the 3′ region plus the sequence of the preferably four parsing bases immediately 3′ to the remainder of the recognition site, preferably the sequence of the entire fragment; and (b) the length of the fragment. These two parameters, sequence and fragment length, were used to compare the obtained PCR products to a database of known polynucleotide sequences. Since the length of the obtained PCR products includes known vector sequences at the 5′ and 3′ ends of the insert, the sequence of the insert provided in the sequence listing is shorter than the fragment length that forms part of the digital address.
(§5) The method yields Digital Sequence Tags (DSTs), that is, polynucleotides that are expressed sequence tags of the 3′ end of mRNAs. […]

[2] = system: REC1_37 (digital address TTCA 264) mRNA, ribosomal protein L15; test: TOGA analysis, REC1_37; details: aorta at day 14 of cholesterol, 3 mg/kg/week for 4 weeks
Description: as §1, §2, §3, §4, §5

[3] = system: REC1_33 (digital address CCGA 96) mRNA, as1_casein gene; test: TOGA analysis, REC1_33; details: aorta at day 14 of cholesterol administration, 3 mg/kg/week for 4 weeks
Description: as §1, §2, §3, §4, §5

[4] = system: REC1_31 (digital address TGCA 210) mRNA, mitochondrial genome; test: TOGA analysis, REC1_31; details: aorta at day 14 of cholesterol administration, 3 mg/kg/week for 4 weeks
Description: as §1, §2, §3, §4, §5

[5] = system: REC1_7 (MspI CACA 282) mRNA; test: TOGA analysis, REC1_7; details: aorta at day 14 of cholesterol administration, 3 mg/kg/week for 4 weeks
Description: as §1, §2, §3, §4, §5

[6] = system: REC1_1 (MspI AAGC 288) mRNA, TYRO protein tyrosine kinase binding p; test: TOGA analysis, REC1_1; details: aorta at day 14 of cholesterol treatment, 3 mg/kg/week for 4 weeks
Description: as §1, §2, §3, §4, §5

[7] = system: REC1_24 (digital address CCGG 232) mRNA; test: TOGA analysis, REC1_24; details: TOGA; hypercholesterolemic plus lercanidipine R (−), eight weeks; H2 (normocholesterolemic)=1.0
Description: as §1, §2, §3, §4, §5

[8] = system: REC1_28 (digital address CGGT 101) mRNA, calgizzarin; test: TOGA analysis, REC1_28; details: aorta of hypercholesterolemic rabbits treated with (R)-lercanidipine
Description: as §1, §2, §3, §4, §5

[9] = system: REC1_22 (digital address TGGG 164) mRNA; test: TOGA analysis, REC1_22; details: TOGA; hypercholesterolemic plus lercanidipine R (−), eight weeks; H2 (normocholesterolemic)=1.0
Description: as §1, §2, §3, §4, §5

COC(=O)C1=C(C)NC(C)=C(C(=O)OC(C)(C)CN(C)CCC(c2ccccc2)c2ccccc2)[C@@H]1c1cccc([N+](=O)[O-])c1.Cl (single isomer, unassigned) [(R)-lercanidipine]
level of gene expression of REC1_34 (TOGA) [1]: 58 | level of gene expression of REC1_37 (TOGA) [2]: 42 | level of gene expression of REC1_33 (TOGA) [3]: 170 | level of gene expression of REC1_31 (TOGA) [4]: 28 | level of gene expression of REC1_7 (TOGA) [5]: 683 | level of gene expression of REC1_1 (TOGA) [6]: 872 | Relative Abundance Rec1_24, TOGA, D [7]: 0.3 | expression of REC1_28 (TOGA), in words [8]: not down-regulated | Relative Abundance Rec1_22, TOGA, D [9]: 0.1
